Experiments:
[1] = system: iCell Cardiomyocytes (hIPS cardiomyocytes); assay: Calcium transient dynamics in cardiomyocytes derived from human stem cells by Kinetic Image Cytometry; type: cell-based
Text: CTD25: Approximates the time elapsed during the first 25% of the transient duration. The measurement assesses the time elapsed from the 75% point of upstroke to the 75% point on the downstroke relative to the peak. Full Width Half Maximum (FWHM): The time elapsed from the 50% point of the upstroke to the 50% point of the down stroke. CTD75: Approximates the time elapsed for 75% of the transient duration. The measurement assesses the time elapsed from the 25% point of upstroke to the 25% point on the down stroke relative to the peak. CTD90: Approximates the time elapsed for 90% of the transient duration. The measurement assesses the time elapsed from the 10% point of upstroke to the 10% point on the down stroke relative to the peak. Decay Time: The time elapsed from the peak to the 50% point of the down stroke T75-25: The time elapsed from the 75% point of the transient maximum to the 25% point of the transient maximum on the down stroke. Beat Rate is assessed by measuring the number of transients observed during the recording period and extrapolating out to the number of expected beats per minute.
Analysis of Test Compounds on Calcium Transient Dynamics in Cardiomyocytes Derived from Human Stem Cells by Kinetic Image Cytometry
Cryopreserved cells (Cellular Dynamics International) were plated onto 96 well tissue culture plates previously coated with Matrigel (250 μg/ml) at a density of 25,000 cells per well, and maintained for two days in plating medium at 37° C. and 7% CO2. After two days in culture, the plating media was replaced with maintenance media and the cells were kept at 37° C. and 7% CO2 with the maintenance media replaced every other day. The cardiomyocytes were maintained in culture for 10 days prior to their use in the assay.
Prior to treatment with the test compounds, the cardiomyocytes were loaded using Fluo-4NW, Hoechst 33342 (200 ng/ml), and 2.5 mM probenecid in the supplied Fluo-4NW assay buffer. Cells were loaded for 1 hour at 37° C.
Test compounds were diluted to their final concentration in Tyrode's solution and brought to 37° C. In addition to standard 2 mM CaCl2 Tyrode's solution, elevated calcium variations using 4 mM and 6 mM CaCl2 were examined in separate test sets.
The hIPS Cardiomyocytes were also prepared for testing with 1 Hz electrical stimulation in standard 2 mM CaCl2 Tyrodes, and test compounds were prepared as described above. […]
Vala Sciences' Kinetic Image Cytometer (KIC™) was used to capture movies of the intracellular calcium transients. The environmental control chamber of the KIC was set to 37° C. and the KIC was fitted with a 20× objective and captured one image of the nuclei (Hoechst), then recorded 10 seconds of spontaneous activity (Fluo-4NW) at 30 fps from each well.

[2] = Plasma stability (incubation in mouse plasma, LC/MS/MS); type: in vitro ADME; details: for Plasma Stability, Time 0 min / Plasma Stability, Time 60 min / Plasma Stability, Time 240 min / Plasma Stability, Time 30 min: 37° C., 20 μM, parent remaining vs 0-min control
Method: The assay was carried out in 96-well microtiter plates. Compounds were incubated at 37° C. in the presence of the plasma. Reaction mixtures (50 μL) contained a final concentration of 20 μM test compound. The extent of metabolism was calculated as the disappearance of the test compound, compared to the 0-min control reaction incubations. Eucatropine was included as a positive control to verify assay performance.
At each of the time points, 500 μL of quench solution (100% acetonitrile with 0.1% formic acid) with internal standard was transferred to each well. Plates were sealed, vortexed, and centrifuged at 4° C. for 15 minutes at 4000 rpm. The supernatant was transferred to fresh plates for LC/MS/MS analysis.
All samples were analyzed on LC/MS/MS using an AB Sciex API 4000 instrument, coupled to a Shimadzu LC-20AD LC Pump system. Analytical samples were separated using a Waters Atlantis T3 dC18 reverse phase HPLC column (10 mm×2.1 mm) at a flow rate of 0.5 mL/min. The mobile phase consisted of 0.1% formic acid in water (solvent A) and 0.1% formic acid in 100% acetonitrile (solvent B). Elution conditions are detailed in the table below.

mdx mice [3] = assay: In vitro force measurement of diaphragm muscle of treated mdx mice; type: in vivo, mouse; details: ca. 60 mg/kg in diet, four weeks of daily treatment (FIG. 8)
Method: (§1) mdx C57BL/10 mice (15 mice per group) (Jackson Laboratory; mdx mice stock number 001801; C57BL/10 stock number 000476) were treated with Example 20 formulated in food (347 mg of Example 20 blended into 1 kg of Purina LabDiet Rodent 5001). Based on calculated food consumption, the dose of Example 20 was estimated to be 60 mg/Kg, administered daily in diet for 4 weeks.
Mice were delivered at 4 weeks of age, and acclimatized for an additional seven days prior to initiation of the study. All animals were weighed, and grouped into different treatment groups based on body weight. Each group received an appropriate daily dosage of Example 20 or vehicle. Age and sex-matched C57BL/10 (vehicle) were used as controls. Exposure levels of Example 1 (the metabolism product of Example 20) in mouse plasma was measured in a separate 5-day pharmacokinetic study in mdx mice prior to the initiation of the 4-week study. Plasma samples were also taken at the termination of the 4-week study for pharmacokinetic assessment in which exposure leves of Example 1 were again measured (the results are set out below). The functional measurements (grip strength measurement and exhaustion assay) were performed after treatment. At the end of the trial, the extensor digitorum longus muscle (EDL) and diaphragm in vitro force measurements were taken, and dissection of the mice was performed to collect tissues. […]

mdx mice [4] = assay: Histology (H&E): muscle regeneration and markers of inflammation in treated mdx mice; type: in vivo, mouse; details: 4-weeks treatment
Method: as §1
Mice were delivered at 4 weeks of age, and acclimatized for an additional seven days prior to initiation of the study. All animals were weighed, and grouped into different treatment groups based on body weight. Each group received an appropriate daily dosage of Example 20 or vehicle. Age and sex-matched C57BL/10 (vehicle) were used as controls. Exposure levels of Example 1 (the metabolism product of Example 20) in mouse plasma was measured in a separate 5-day pharmacokinetic study in mdx mice prior to the initiation of the 4-week study. Plasma samples were also taken at the termination of the 4-week study for pharmacokinetic assessment in which exposure leves of Example 1 were again measured (the results are set out below). The functional measurements (grip strength measurement and exhaustion assay) were performed after treatment. At the end of the trial, the extensor digitorum longus muscle (EDL) and diaphragm in vitro force measurements were taken, and dissection of the mice was performed to collect tissues. Histology evaluation (H&E) was performed on the frozen sections of the diaphragm and gastrocnemius muscles for each group.
Diaphragm and gastrocnemius muscles of untreated and drug-treated mice were isolated and included in Killik frozen section medium, frozen and cut into 8-μm thick sections with the muscle fibers oriented transversely using a cryostat. Sections were stained with Hematoxylin & Eosin to evaluate markers of inflammation, muscle degeneration and regeneration and percentage central nuclei according to Grounds (TREAT NMD SOP protocol DMD_M.1.2.007, Quantification of histopathology in Haemotoxylin and Eosin stained muscle sections).

[5] = system: human Duchenne muscular dystrophy (hDMD) myoblast cells; assay: Calcium release, SR calcium leak and SOCE in Fluo-4/AM-loaded hDMD myoblasts (CPA protocol); type: cell-based; details: 30 uM; for Integrated CPA-Induced CaT (area under the curve) (% Reduction in Peak A): CPA in Ca2+-free solution; for % Reduction in Peak CaT after return to 2 mM Ca^2+ (% Reduction in Peak E): SOCE-induced calcium transit
Method: Parameters measured are A, the peak CPA-induced calcium transit (F/F0); B, the maximum rate of rise of CPA-induced calcium transit (+ΔF/s); C, the maximum rate of decline of CPA-induced calcium transit (−ΔF/s); D, the integrated CPA-induced calcium transit (F.s); and E, the SOCE-induced calcium transit (F/F0).
Cell Preparation: De-identified telomerized human Duchenne muscular dystrophy (hDMD) myoblast cells were grown under standard cell culture conditions in 35 mm glass bottom petri dishes (MatTek, Ashland, Mass.) specially designed for perfusion and imaging.
Uncoated coverslips were coated with gelatin and hDMD cells seeded at ˜40-60% confluency 24 hours prior to fluorescence experiments.
Step 1. Cell Loading with the Fluorescent Ca^2+ Indicator Fluo-4/AM (Cell Permeant Form): hDMD cells were loaded with 5 μM Fluo-4/AM (Thermo Fisher Scientific) for 45 min at room temperature in the same buffer used for experiments of which composition is described below. After the incubation, the cells are washed twice with the same buffer without the indicator. Fluorescence experiments were initiated after a 30 min incubation in indicator-free buffer to allow for de-esterification of the dye and conversion to its acid active form by endogenous esterases.
Step 2. Fluo-4 Fluorescence Detection: A 35 mm petri dish containing Fluo-4-loaded myoblasts was set on the stage of an inverted Nikon Diaphot 300 epifluorescence microscope equipped with a dual PMT ratiometric fluorimeter system (Model SFX-2, Solamere Technology Group, Salt Lake City, Utah) and optical switch (Model DX-1000, Salt Lake City, Utah), a B/W camera and monitor, a PC computer running on Windows 7 Pro operating system and A/D-D/A data acquisition hardware (Axon Instruments Inc., Digidata 1440 interface) and software (Axon Instruments Inc., Axoscope v. 9.2). During a typical experiment, ca. one third to one half of a cell (field of view narrowed by a manually-controlled diaphragm) is visualized on the B/W TV monitor with an oil immersion 40× Fluor objective (NA=1.3) and defines the area from which epifluorescence intensity will be measured by one of the two PMTs (non-ratiometric measurements). For all experiments, the cells are excited by visible light produced by a 100 W mercury arc lamp centered at 488 nm. Emitted fluorescence at 520 nm is transmitted to the lateral port of the microscope by means of dichroic mirrors and a specific barrier filter located in one of three microscope filter cubes. Before each day of experiments, background fluorescence is cancelled by measuring emitted fluorescence in an unloaded cell. For all cells loaded with Fluo-4/AM, relative fluorescence intensity at 520 nm (filtered at 5 Hz) is normalized to Fluo-4 fluorescence intensity measured in Ca^2+-free medium (F/F0) prior to the addition of 10 μM cyclopiazonic acid (CPA; see protocol description below) to monitor Ca^2+ leakage from the sarcoplasmic reticulum (SR). Free intracellular Ca^2+ concentration is continuously monitored (>20 min; acquisition rate=200 Hz) with no evidence of photobleaching due to low level of excitation light intensity used and sensitivity of the Hamamatsu PMT set to high power.
After mounting the petri dish containing Fluo-4-loaded cells on the microscope stage, cell perfusion with normal physiological salt solutions (PSS) containing 2 mM Ca^2+ was initiated. A myoblast cell was then chosen under normal illumination. Fluo-4 fluorescence intensity recording was then initiated for 2 to 3 minutes to assess the level of loading and stability of the measurement. Once these conditions were met, the solution was switched to Ca^2+-free PSS for 5 min, and then switched for another 5 min to Ca^2+-free PSS containing only vehicle (Control; maximal concentration of 0.1% dimethyl sulfoxide) or vehicle plus drug to be tested (Test). […]

| SMILES | Plasma Stability, Time 0 min [2] [%] | Plasma Stability, Time 60 min [2] [%] | Plasma Stability, Time 240 min [2] [%] | Integrated CPA-Induced CaT (area under the curve) (% Reduction in Peak A) [5] [%] | % Reduction in Peak CaT after return to 2 mM Ca^2+ (% Reduction in Peak E) [5] [%] | other results |
| --- | --- | --- | --- | --- | --- | --- |
| COC(=O)C1=C(C)NC(C)=C([N+](=O)[O-])C1c1ccccc1C(F)(F)F (stereo not shown) [Bay K8644, reference compound] |  |  |  |  |  | CTD75 relative to vehicle control ([1]; reference compounds at 1 uM, under each experimental condition, 0.1% DMSO vehicle): ≥ 125 % of vehicle control |
| [2H]C(c1ccc(C(=O)OCCCCO[N+](=O)[O-])cc1)N1CCSc2ccc(OC)cc2C1([2H])[2H] (stereo not shown) [Example 20] | 100.0 | 0.6 | 0.3 |  |  | maximal force in the diaphragm (mdx mice [3]): significant improvement; specific force in the diaphragm (mdx mice [3]): significant improvement; increase in regenerating fibers/mm^2 in the diaphragm (mdx mice [4]): > 25%; increase in regenerating fibers/mm^2 in the gastrocnemius muscle (mdx mice [4]): > 50%; reduction in inflammatory foci/mm^2 in the gastrocnemius muscle (mdx mice [4]): > 30% |
| [2H]C(c1ccc(C(=O)O)cc1)N1CCSc2ccc(OC)cc2C1([2H])[2H] (stereo not shown) [Example 1, 4-((5,5-Dideutero-7-methoxy-2,3-dihydrobenzo[f][1,4]thiazepin-4(5H)-yl)deuteromethyl)benzoic acid] | 100.0 | 99.8 | 102.1 |  |  | plasma stability after 2-hours of incubation in plasma ([2]; 2-hours of incubation): unchanged; Plasma Stability, Time 30 min [2]: 111.2% |
| COc1cc2c(cn1)SCCN(Cc1ccc(C(=O)O)cc1)C2 [Example 2, 4-((7-Methoxy-2,3-dihydropyrido[4,3-f][1,4]thiazepin-4(5H)-yl)methyl)benzoic acid] |  |  |  | 43.3 | 41.4 | CTD75 shortened to % of control ([1]; 10 uM, 30 uM (FIG. 5)): 79 % of control; triangulation T75-25 reduced to % of control ([1]; 10 uM, 30 uM (FIG. 5)): 71 % of control; effect on proarrhythmia and calcium transient ([1]; 10 uM, 30 uM, spontaneously beating cells in 4 mM calcium Tyrode's solution (FIG. 4)): dose-related reduction of proarrhythmia and calcium transient shortening |
| COc1cnc2c(c1)CN(Cc1ccc(C(=O)O)cc1)CCS2 [Example 13, 4-((7-Methoxy-2,3-dihydropyrido[3,2-f][1,4]thiazepin-4(5H)-yl)methyl)benzoic acid] |  |  |  | 25.9 | 80.8 |  |
| COc1ccc2c(c1)CN(C)CCS2 [Example S107, reference compound] |  |  |  | 74.1 | 52.8 |  |
| COc1ncc2c(n1)CN(Cc1ccc(C(=O)O)cc1)CCS2 [Example 17, 4-((2-Methoxy-6,7-dihydropyrimido[4,5-f][1,4]thiazepin-8(9H)-yl)methyl)benzoic acid] |  |  |  | 23.0 | 21 |  |
| CC1CC(OC(=O)C(O)c2ccccc2)CC(C)(C)N1C (stereo not shown) [Eucatropine, reference compound] | 100.0 | 67.4 | 41.0 |  |  | Plasma Stability, Time 30 min [2]: 90.0% |
| COc1ccc2c(n1)CN(Cc1ccc(C(=O)O)cc1)CCS2 [Example 9, 4-((7-Methoxy-2,3-dihydropyrido[2,3-f][1,4]thiazepin-4(5H)-yl)methyl)benzoic acid] |  |  |  | 19.4 | 40.7 |  |

From patent US20160207893A1, “NOVEL CALCIUM MODULATORS” (Myotherix, Inc., priority 2014, published 2016)
